Results published in patent EP3884963A1, “NAPROXEN/DEXAMETHASONE-BASED NANOPARTICLES” (Consejo Superior de Investigaciones Científicas (CSIC), priority 2020, dated 2021).

System: RAW264.7 macrophages
Assay: In vitro viability assay of NPs (AlamarBlue)
Assay type: cell-based, murine
Conditions: RAW264.7, 24 h, all concentrations tested (NPs 0.011-0.25 mg/ml; free Dx at the concentration encapsulated); % respect to the control
Experimental: The RAW264.7 (murine macrophages) cell line was purchased from Sigma-Aldrich. RAW264.7 cells are an in vitro model useful to test the potential anti-inflammatory activity of new drugs. Cells were maintained over permissive conditions in high-glucose Dulbecco's modified Eagle's medium (DMEM; Sigma, Saint Louis, MO, USA) supplemented with 10% fetal bovine serum (FBS; Gibco, BRL), 2% L-Glutamine (Sigma, Saint Louis, MO, USA) and Penicillin-G (Sigma, Saint Louis, MO, USA) at 37 °C in a humidified incubator with 10% CO2.
2 x 10^5 live cells/mL (100 µL per well) were seeded in a 96 well-plate under permissive conditions. After 24 h, cells were exposed to different concentrations of free Dx and Dx-loaded or unloaded NSAID-based NPs suspension (0.25, 0.125, 0.09, 0.045, 0.023 and, 0.011 mg/ml) and cell viability was determined after 24 h of incubation with NPs. AlamarBlue (Invitrogen) was used to determine cell viability. Absorbance at 570 nm was measured by a Multi-Detection Microplate Reader Synergy HT (BioTek Instruments; Vermont, USA). The treatments were done in replicates (n = 8). Results of the experiments were expressed as percentage of relative cell viability (% respect to the control).

C[C@@H]1C[C@H]2[C@@H]3CCC4=CC(=O)C=C[C@]4(C)[C@@]3(F)[C@@H](O)C[C@]2(C)[C@@]1(O)C(=O)CO [free Dx, Dexamethasone]
cell viability: higher than 70%
